Experimental data taken from PMC6801822, “The Bactericidal Activity of Temporin Analogues Against Methicillin Resistant Staphylococcus aureus” (International Journal of Molecular Sciences, 2019).
≈ marks a conversion by molar mass, not a printed value. Read-outs that look alike come from different tables or passages of the source. Non-standard residues stand in square brackets, D forms with d. Residues, ends and D or L forms follow the SMILES beside them. AEEA = NCCOCCOCC(=O)O; βAla = NCCC(=O)O

Assays:
S. aureus USA300 [1] = settings: for MIC: USA300, 24 h
Method: (§1) Antimicrobial activity of peptides was analyzed through determination of MIC parameter according to the standard microdilution technique performed on 96-well plates. Mueller-Hinton broth (MHB, Sigma Aldrich, St. Louis, MO, USA) was used as the working medium for all bacterial strains. Briefly, inoculum was prepared from freshly grown cultures of bacteria being at their exponential phase of growth. Each well of 96-well plates containing 100 µL of serially diluted peptides in PBS at desired concentration was inoculated with 100 µL of 10^5 CFU/mL of bacterial suspension. Then plates were incubated overnight 37 °C and absorbance was read at 600 nm after 24 h. Wells without peptide were treated as the positive control, while uninoculated MHB was defined as the negative control. All measurements were run in triplicates.

[2] = cited from earlier work
Source text: The efficient antibacterial activity of the DAL-PEG-DK5 conjugate may be due to the fact that it has a higher cationic charge than DK5 (+7 vs. +6, respectively). However, a α-helicity must also play an important role in this case. According to a common view about the mechanism underlying the antimicrobial activity of AMPs, formation of hel ...

S. aureus Newman = settings: Newman, 24 h
Method: as §1

S. aureus ATCC 25923 = settings: ATCC 25923, 24 h
Method: as §1

[3] = system: S. epidermidis ATCC 12228; settings: ATCC 12228, 24 h
Method: as §1

[4] = system: intracellular MRSA clinical isolate; settings: cited from earlier work; for MIC: MRSA clinical isolate
Source text: Cumulatively, these findings encouraged us to test the ability of the peptide conjugate to kill invasive intracellular MRSA. […] In addition, ...

S. aureus USA300 [5] = assay: microbe, parasite or virus in culture; settings: Staphylococcus aureus, MRSA / USA300, 24 h
Method: as §1

Row | Compound | MIC (S. aureus USA300 [1]) [µg/mL] | MIC (S. aureus Newman) [µg/mL] | MIC (S. aureus ATCC 25923) [µg/mL] | MIC [3] [µg/mL] | also measured
1 | CC[C@H](C)[C@H](N)C(=O)N[C@@H](CCCCN)C(=O)N[C@@H](CCCCN)C(=O)N[C@H](C(=O)N[C@@H](CC(C)C)C(=O)N[C@@H](CO)C(=O)N[C@H](CCCCN)C(=O)N[C@H](C(=O)N[C@@H](CCCCN)C(=O)N[C@@H](CCCCN)C(=O)N[C@@H](CC(C)C)C(=O)N[C@@H](CC(C)C)C(N)=O)[C@@H](C)CC)[C@@H](C)CC [DK5] (H-IKKILS[dK]IKKLL-NH2; N-terminus assumed) | >190 | – | – | – | cationic charge [2]: +6
2 | CC[C@H](C)[C@H](NC(=O)COCCOCCNC(=O)CNC(=O)[C@@H]1CCCN1C(=O)[C@H](CCC(=O)O)NC(=O)[C@H](CC(C)C)NC(=O)CNC(=O)[C@@H](N)CCC(=O)O)C(=O)N[C@@H](CCCCN)C(=O)N[C@@H](CCCCN)C(=O)N[C@H](C(=O)N[C@@H](CC(C)C)C(=O)N[C@@H](CO)C(=O)N[C@H](CCCCN)C(=O)N[C@H](C(=O)N[C@@H](CCCCN)C(=O)N[C@@H](CCCCN)C(=O)N[C@@H](CC(C)C)C(=O)N[C@@H](CC(C)C)C(N)=O)[C@@H](C)CC)[C@@H](C)CC [COMB1-PEG-DK5] (H-EGLEPG[AEEA]IKKILS[dK]IKKLL-NH2; N-terminus assumed) | >190 | >190 | >190 | >190 | –
3 | temporin B | – | – | – | – | MIC [4]: 16 µM; killed intracellular MRSA ([4]; at 4 × MIC): 40%
4 | CC(=O)NC[C@H]1CN(c2ccc(N3CCOCC3)c(F)c2)C(=O)O1 [Linezolid, linezolid] | – | – | – | – | MIC (S. aureus USA300 [5]): 1 µg/mL (≈ 2.96 µM)
5 | CN[C@H](CC(C)C)C(=O)N[C@H]1C(=O)N[C@@H](CC(N)=O)C(=O)N[C@H]2C(=O)N[C@H]3C(=O)N[C@H](C(=O)N[C@H](C(=O)O)c4cc(O)cc(O)c4-c4cc3ccc4O)[C@H](O)c3ccc(c(Cl)c3)Oc3cc2cc(c3O[C@@H]2O[C@H](CO)[C@@H](O)[C@H](O)[C@H]2O[C@H]2C[C@](C)(N)[C@H](O)[C@H](C)O2)Oc2ccc(cc2Cl)[C@H]1O [Vancomycin, vancomycin] | – | – | – | – | MIC (S. aureus USA300 [5]): 1 µg/mL (≈ 0.69 µM)
6 | CC[C@H](C)[C@H](NC(=O)COCCOCCNC(=O)[C@H](Cc1c[nH]cn1)NC(=O)CCN)C(=O)N[C@@H](CCCCN)C(=O)N[C@@H](CCCCN)C(=O)N[C@H](C(=O)N[C@@H](CC(C)C)C(=O)N[C@@H](CO)C(=O)N[C@H](CCCCN)C(=O)N[C@H](C(=O)N[C@@H](CCCCN)C(=O)N[C@@H](CCCCN)C(=O)N[C@@H](CC(C)C)C(=O)N[C@@H](CC(C)C)C(N)=O)[C@@H](C)CC)[C@@H](C)CC [CAR-PEG-DK5] (H-[βAla]H[AEEA]IKKILS[dK]IKKLL-NH2; N-terminus assumed) | >190 | >190 | >190 | 40 (≈ 22.5 µM) | –
7 | CC[C@H](C)[C@H](NC(=O)COCCOCCNC(=O)[C@H](Cc1c[nH]cn1)NC(=O)CCNC(=O)[C@H](Cc1c[nH]cn1)NC(=O)CCNC(=O)[C@H](Cc1c[nH]cn1)NC(=O)CCN)C(=O)N[C@@H](CCCCN)C(=O)N[C@@H](CCCCN)C(=O)N[C@H](C(=O)N[C@@H](CC(C)C)C(=O)N[C@@H](CO)C(=O)N[C@H](CCCCN)C(=O)N[C@H](C(=O)N[C@@H](CCCCN)C(=O)N[C@@H](CCCCN)C(=O)N[C@@H](CC(C)C)C(=O)N[C@@H](CC(C)C)C(N)=O)[C@@H](C)CC)[C@@H](C)CC [CAR3-PEG-DK5] (H-[βAla]H[βAla]H[βAla]H[AEEA]IKKILS[dK]IKKLL-NH2; N-terminus assumed) | >190 | >190 | >190 | 110 (≈ 50.1 µM) | –
8 | temporin A | – | – | – | – | MIC [4]: 8 µM; killed intracellular MRSA ([4]; at 2 × MIC): 20%
9 | CC[C@H](C)[C@H](N)C(=O)N[C@@H](CCCCN)C(=O)N[C@@H](CCCCN)C(=O)N[C@H](C(=O)N[C@@H](CC(C)C)C(=O)N[C@@H](CO)C(=O)N[C@H](CCCCN)C(=O)N[C@H](C(=O)N[C@@H](CCCCN)C(=O)N[C@@H](CCCCN)C(=O)N[C@@H](CC(C)C)C(=O)N[C@@H](CC(C)C)C(=O)NCCOCCOCC(=O)N[C@@H](Cc1ccc(O)cc1)C(=O)N[C@H](C)C(=O)NCC(=O)N[C@@H](Cc1ccccc1)C(=O)N[C@@H](CC(C)C)C(=O)N[C@@H](CCCNC(=N)N)C(N)=O)[C@@H](C)CC)[C@@H](C)CC [DK5-PEG-DAL] (H-IKKILS[dK]IKKLL[AEEA]Y[dA]GFLR-NH2; N-terminus and C-terminus assumed) | – | – | – | – | inhibition of USA300 growth relative to DAL-PEG-DK5 (S. aureus USA300 [1]; comparison of MIC 160 vs 40 μg/mL): four times less; α-helical content ([2]; circular dichroism, 30 mM SDS in water): 20%
